Source: patent US11173140B2, “Dosing regimens of PKC activators” (COGNITIVE RESEARCH ENTERPRISES, INC., priority 2015, dated 2021)

Biological target: T1, PKC-ε (Mus musculus, UniProt P16054)
T1 construct: from tissue; host or cells: brain of C57B/6 male mice
T1 sequence (P16054 1-737): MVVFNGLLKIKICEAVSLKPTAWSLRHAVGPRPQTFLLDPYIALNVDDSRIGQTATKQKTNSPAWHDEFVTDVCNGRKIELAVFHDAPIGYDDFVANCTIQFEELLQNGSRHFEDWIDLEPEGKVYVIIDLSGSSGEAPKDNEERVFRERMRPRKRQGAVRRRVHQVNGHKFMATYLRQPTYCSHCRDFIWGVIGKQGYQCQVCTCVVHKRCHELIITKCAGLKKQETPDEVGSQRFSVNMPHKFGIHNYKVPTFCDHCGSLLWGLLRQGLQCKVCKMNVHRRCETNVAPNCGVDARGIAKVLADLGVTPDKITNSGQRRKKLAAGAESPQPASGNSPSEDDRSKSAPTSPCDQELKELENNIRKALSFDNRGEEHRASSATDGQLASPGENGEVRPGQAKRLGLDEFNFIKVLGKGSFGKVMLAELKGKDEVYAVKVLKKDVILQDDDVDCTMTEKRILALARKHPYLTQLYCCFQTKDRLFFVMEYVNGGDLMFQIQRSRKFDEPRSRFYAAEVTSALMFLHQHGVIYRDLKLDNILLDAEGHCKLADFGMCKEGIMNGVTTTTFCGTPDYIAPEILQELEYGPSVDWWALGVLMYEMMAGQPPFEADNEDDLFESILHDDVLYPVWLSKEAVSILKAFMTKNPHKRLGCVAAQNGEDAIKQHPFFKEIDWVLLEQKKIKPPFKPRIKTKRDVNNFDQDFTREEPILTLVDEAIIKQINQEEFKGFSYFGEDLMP
Assay: Total PKC (PKC-ε) level / downregulation in brain after i.v. bryostatin dosing regimens
Type: in vivo
Details: mice
Description: FIGS. […] (A) Downregulation of brain PKCε in mice after intravenous administration of bryostatin at doses of 10 μg/m^2, 15 μg/m^2, and 25 μg/m^2 for 1-6 consecutive weeks. (B) Downregulation of brain PKCε in mice after intravenous administration of bryostatin at two different doses (i) 2×25+2 μg/m^2, and (ii) 25 μg/m^2. Dosing regimen is disclosed along the abscissa.
Mouse studies were performed using bryostatin-i in accordance with the protocol described below. The following metrics were used to evaluate dosing regimens: induction of brain postsynaptic anchoring protein PSD-95, upregulation of BDNF levels in brain, minimal downregulation of PKC-ε levels, and elevation of brain and plasma concentrations of bryostatin. Groups of 2-3 mice were formed and housed in an approved research animal facility. Water was give ad libitum. A first study involved three groups of mice with animals in each group dosed weekly for 1, 2, 3, or 6 consecutive weeks. Each group had its own control group containing the same number of mice. In this study, mice in the first, second and third groups received an intravenous (i.v.) injection of 10 μg/m^2, 15 μg/m^2, and 25 μg/m^2 dose of bryostatin respectively. For each dose, mice in that group received a single injection of bryostatin weekly for predetermined number of consecutive weeks. Following dosing, mice were sacrificed and the blood and brain of each animal was collected for further analysis.
Cells were harvested in homogenizing buffer containing 10 mM Tris-Cl (pH 7.4), 1 mM PMSF (phenylmethylsulfonyl fluoride), 1 mM EGTA, 1 mM EDTA. 50 mM NaF, and 20 μM leupeptin and were lysed by sonication. The homogenate was centrifuged at 100,000×g for 15 min at 4° C. to obtain the cytosolic fraction (supernatant) and membrane (pellet). The pellet was resuspended in the homogenizing buffer by sonication. Protein concentration was measured using the Coomassie Plus (Bradford) Protein Assay kit (Pierce, USA). Following quantification, 20 μg of protein from each sample was subjected to SDS-PAGE analysis in 4-20% gradient Tris-Glycine gel (Invitrogen, USA). The separated protein was then transferred to nitrocellulose membrane. The membrane was blocked with BSA at room temperature for 15 min and was incubated with primary antibody over night at 4° C. After the incubation, it was washed three times with TBS-T (Tris Buffered saline-Tween 20) and further incubated with alkaline phosphatase conjugated secondary antibody (Jackson Immunoresearch Laboratories. USA) at 1:10,000 dilution for 45 min. The membrane was finally washed three times with TBS-T and developed using the 1-step NBT-BCIP substrate (Pierce, USA). Western Blot was imaged in the Image Quant RT-ECL (GE Life Sciences, Piscataway, N.J.) and densitometric quantification was performed using the IMAL software (Blanchette Rockefeller Neurosciences institute, Morgantown, W. Va.). For translocation assays, PKC activation was represented as the percentage of total protein in the membrane (membrane/cytosol+membrane). […]
C57B/6 male mice weighing between 19-21 grams were obtained from Charles River and housed in cages, 1 mouse/cage in a vivarium at the Blanchette Rockefeller Neurosciences institute. Animals were allowed access to water ad libitum.
In these studies, bryostatin was administered intravenously (i.v.) by injection into the tail vein of a mouse. Stock solutions of bryostatin were prepared in dimethyl sulfoxide (DMSO). Prior to administration to a mouse, the stock DMSO solution of bryostatin was diluted to a predetermined concentration by dilution with phosphate buffered saline/saline (PBS/saline).
Three different dosing regimens (injection schedules) were compared. The dosing regimens tested were weekly dosing, dosing every other week (alternating weeks), and spaced or intermittent dosing. […]

CCC/C=C/C=C/C(=O)O[C@H]1/C(=C/C(=O)OC)C[C@H]2C[C@H]([C@@H](C)O)OC(=O)C[C@H](O)C[C@@H]3C[C@H](OC(C)=O)C(C)(C)[C@](O)(C[C@@H]4C/C(=C/C(=O)OC)C[C@H](/C=C/C(C)(C)[C@]1(O)O2)O4)O3 [Bryostatin-1]
PKC-ε downregulation (10 μg/m^2 weekly, total of 6 consecutive weeks): appeared to result in downregulation | PKC-ε downregulation (25 μg/m^2, continued dosing, 1 on/1 off and 2 on/1 off regimens): additional downregulation occurred | PKC downregulation (25 μg/m^2, rest intervals increased to three weeks (3 on/3 off)): significantly reduced PKC downregulation | PKC-ε downregulation in brain (25 μg/m^2, three consecutive weekly doses, versus lower doses): did not produce more PKC-ε downregulation | PKC (% of Control), total PKC level (cage 4: 25 μg/m^2 i.v. once weekly, 3 weeks, 24 h): 84.841 % of Control | PKC (% of Control), total PKC level (cage 5: 25 μg/m^2 i.v., 3 on/3 off/3 on (9 weeks), 24 h): 78.2 % of Control | PKC (% of Control), total PKC level (cage 6: 10 μg/m^2 i.v. once weekly, 3 weeks, 24 h): 95.197 % of Control | PKC (% of Control), total PKC level (cage 8: 10 μg/m^2 i.v. once weekly, 6 weeks, 24 h): 80.441 % of Control | PKC (% of Control), total PKC level (cage 9: 25 μg/m^2 i.v., alternating, weeks 1 and 3, 24 h): 63.02 % of Control | PKC (% of Control), total PKC level (cage 10: 25 μg/m^2 i.v., alternating, weeks 1, 3, 5, 7, 9, 24 h): 59.11 % of Control | PKC (% of Control), total PKC level (cage 11: 25 μg/m^2 i.v., weeks 1 and 2, collection week 3 (7 d delay)): 56.7 % of Control | PKC (% of Control), total PKC level (cage 12: 25/20 μg/m^2 i.v., injections weeks 1, 2, 4, 6, 8, collection week 9 (7 d delay)): 49.92 % of Control | PKC (% of Control), total PKC level (cage 18: 15 μg/m^2 i.v. once weekly, 3 weeks, 24 h): 66.430 % of Control | PKC (% of Control), total PKC level (cage 22 (regimen not listed in Tables 2/3)): 89.206 % of Control | PKC (% of Control), total PKC level (cage 24: 25 μg/m^2 i.v. once weekly, 2 weeks, 24 h): 96.723 % of Control
